From patent publication US20100298141A1, “SUBSTITUTED PYRIDINE N-OXIDE HERBICIDES” (E. I. DU PONT DE NEMOURS AND COMPANY, priority 2007, published 2010)

Legend:
Italian ryegrass = test: Test C pre-/postemergence test; assay type: in vivo, Lolium multiflorum; conditions: for Plant response rating, Ryegrass, Italian: 31 g ai/ha, scale 0 to 100 (0 no effect, 100 complete control)
Procedure, shortened: (§1)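 Compounds in a non-phytotoxic solvent with surfactant applied preemergence to seeded pots and, at the same time, postemergence to plants 2–18 cm tall (1- to 4-leaf stage). Paddy tests: pots flooded to 3 cm, compound applied into the water, depth held throughout.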

green foxtail = test: Test C pre-/postemergence test; assay type: in vivo, Setaria viridis; conditions: for Plant response rating, Foxtail, Green: 31 g ai/ha, scale 0 to 100 (0 no effect, 100 complete control)
Procedure, shortened: as §1

blackgrass = test: Test C pre-/postemergence test; assay type: in vivo, Alopecurus myosuroides; conditions: for Plant response rating, Blackgrass: 31 g ai/ha, scale 0 to 100 (0 no effect, 100 complete control)
Procedure, shortened: as §1

umbrella sedge = test: Test C flooded paddy test; assay type: in vivo, Cyperus difformis; conditions: Flood
Procedure, shortened: (§2)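 Ratings were visual and made relative to untreated controls after 13 to 15 greenhouse days.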

yellow nutsedge = test: Test C pre-/postemergence test; assay type: in vivo, Cyperus esculentus; conditions: for Plant response rating, Nutsedge, Yellow: 31 g ai/ha, scale 0 to 100 (0 no effect, 100 complete control)
Procedure, shortened: as §1

[1] = system: common (oilseed) sunflower; test: Test C pre-/postemergence test; assay type: in vivo, Helianthus annuus; conditions: for Plant response rating, Sunflower: 31 g ai/ha, scale 0 to 100 (0 no effect, 100 complete control)
Procedure, shortened: as §1

corn = test: Test C pre-/postemergence test; assay type: in vivo, Zea mays; conditions: for Plant response rating, Corn: 31 g ai/ha, scale 0 to 100 (0 no effect, 100 complete control)
Procedure, shortened: as §1

crabgrass = test: Test A pre-/postemergence greenhouse test; assay type: in vivo, Digitaria sanguinalis; conditions: for Plant response rating, Crabgrass, Large: 0 to 100 scale where 0 is no effect and 100 is complete control; for Crabgrass, Large plant response rating: 0 to 100 scale
Procedure, shortened: (§3)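 Test compounds in non-phytotoxic solvent with surfactant were applied as a preemergence soil spray to seeded loam/sand pots and, concurrently, postemergence to plants at 2–10 cm, one- to two-leaf stage. About ten days in greenhouse, then injury visually rated against untreated controls.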

redroot pigweed = test: Test A pre-/postemergence greenhouse test; assay type: in vivo, Amaranthus retroflexus; conditions: for Plant response rating, Pigweed: 0 to 100 scale where 0 is no effect and 100 is complete control; for Pigweed plant response rating: 0 to 100 scale
Procedure, shortened: as §3

morningglory = test: Test A pre-/postemergence greenhouse test; assay type: in vivo, Ipomoea spp.; conditions: for Plant response rating, Morningglory: 0 to 100 scale where 0 is no effect and 100 is complete control; for Morningglory plant response rating: 0 to 100 scale
Procedure, shortened: as §3

duck salad = test: Test C flooded paddy test; assay type: in vivo, Heteranthera limosa; conditions: Flood
Procedure, shortened: as §2

eastern black nightshade = test: Test C pre-/postemergence test; assay type: in vivo, Solanum ptycanthum
Procedure, shortened: as §1

woolly cupgrass = test: Test C pre-/postemergence test; assay type: in vivo, Eriochloa villosa; conditions: for Plant response rating, Cupgrass, Woolly: 31 g ai/ha, scale 0 to 100 (0 no effect, 100 complete control)
Procedure, shortened: as §1

wild oat = test: Test C pre-/postemergence test; assay type: in vivo, Avena fatua; conditions: for Plant response rating, Oat, Wild: 31 g ai/ha, scale 0 to 100 (0 no effect, 100 complete control)
Procedure, shortened: as §1

common ragweed = test: Test C pre-/postemergence test; assay type: in vivo, Ambrosia elation; conditions: for Plant response rating, Ragweed: 31 g ai/ha, scale 0 to 100 (0 no effect, 100 complete control)
Procedure, shortened: as §1

Goosegrass = test: Test C pre-/postemergence test; assay type: in vivo, Eleusin indica; conditions: for Plant response rating, Goosegrass: 31 g ai/ha, scale 0 to 100 (0 no effect, 100 complete control)
Procedure, shortened: as §1

wheat = test: Test C pre-/postemergence test; assay type: in vivo, Triticum aestivum; conditions: for Plant response rating, Wheat: 31 g ai/ha, scale 0 to 100 (0 no effect, 100 complete control)
Procedure, shortened: as §1

[2] = 62 g ai/ha, Preemergence, scale 0 to 100
[3] = 125 g ai/ha, preemergence, scale 0 (no effect) to 100 (complete control)
[4] = preemergence, 250 g ai/ha, scale 0 (no effect) to 100 (complete control)
[5] = 62 g ai/ha, scale 0 to 100 (0 no effect, 100 complete control)
[6] = 250 g ai/ha, scale 0 to 100, 0 no effect, 100 complete control, 13 to 15 days
[7] = Postemergence, 500 g ai/ha, 0 is no effect, 100 is complete control
[8] = Preemergence, 125 g ai/ha, 0 no effect, 100 complete control
[9] = preemergence, 125 g ai/ha, scale 0 (no effect) to 100 (complete control)
[10] = 31 g ai/ha, scale 0 to 100 (0 no effect, 100 complete control)
[11] = 62 g ai/ha, scale 0 to 100, 0 no effect, 100 complete control, 13 to 15 days
[12] = 125 g ai/ha, scale 0 to 100, 0 no effect, 100 complete control, 13 to 15 days
[13] = Postemergence, 125 g ai/ha, 0 is no effect, 100 is complete control

CCc1cc[n+]([O-])c(S(=O)(=O)Cc2c(C(F)(F)F)nn(C)c2OCC(F)(F)F)c1 [Compound 60]
Ryegrass, Italian plant response rating (Italian ryegrass; [2]): 75 | Ryegrass, Italian plant response rating (Italian ryegrass; [3]): 80 | Plant response rating, Ryegrass, Italian (Italian ryegrass; Preemergence): 20 | Ryegrass, Italian plant response rating (Italian ryegrass; [4]): 90 | Foxtail, Green plant response rating (green foxtail; [2]): 100 | Foxtail, Green plant response rating (green foxtail; [3]): 100 | Plant response rating, Foxtail, Green (green foxtail; Preemergence): 85 | Foxtail, Green plant response rating (green foxtail; [4]): 100 | Blackgrass plant response rating (blackgrass; [2]): 90 | Blackgrass plant response rating (blackgrass; [3]): 100 | Plant response rating, Blackgrass (blackgrass; Preemergence): 85 | Blackgrass plant response rating (blackgrass; [4]): 100 | Plant response rating, Sedge, Umbrella (umbrella sedge; [5]): 0 | Plant response rating, Sedge, Umbrella (umbrella sedge; [6]): 80 | Nutsedge, Yellow plant response rating (yellow nutsedge; [2]): 50 | Nutsedge, Yellow plant response rating (yellow nutsedge; [3]): 100 | Plant response rating, Nutsedge, Yellow (yellow nutsedge; Preemergence): 20 | Nutsedge, Yellow plant response rating (yellow nutsedge; [4]): 100 | Sunflower plant response rating [1, 2]: 55 | Sunflower plant response rating [1, 3]: 70 | Plant response rating, Sunflower ([1]; Preemergence): 40 | Sunflower plant response rating [1, 4]: 80 | Corn plant response rating (corn; [2]): 20 | Corn plant response rating (corn; [3]): 55 | Plant response rating, Corn (corn; Preemergence): 0 | Corn plant response rating (corn; [4]): 98 | Plant response rating, Crabgrass, Large (crabgrass; Postemergence, 125 g ai/ha): 50 | Crabgrass, Large plant response rating (crabgrass; [7]): 80 | Crabgrass, Large plant response rating (crabgrass; [8]): 90 | Plant response rating, Crabgrass, Large (crabgrass; Preemergence, 500 g ai/ha): 100 | Plant response rating, Pigweed (redroot pigweed; Postemergence, 125 g ai/ha): 60 | Pigweed plant response rating (redroot pigweed; [7]): 80 | Pigweed plant response rating (redroot pigweed; [8]): 100 | Plant response rating, Pigweed (redroot pigweed; Preemergence, 500 g ai/ha): 100 | Plant response rating, Morningglory (morningglory; Postemergence, 125 g ai/ha): 50 | Morningglory plant response rating (morningglory; [7]): 60 | Morningglory plant response rating (morningglory; [8]): 70 | Plant response rating, Morningglory (morningglory; Preemergence, 500 g ai/ha): 100 | Plant response rating, Ducksalad (duck salad; [5]): 0 | Plant response rating, Ducksalad (duck salad; [6]): 40 | Nightshade plant response rating (eastern black nightshade; [2]): 80 | Nightshade plant response rating (eastern black nightshade; [3]): 100 | Nightshade plant response rating (eastern black nightshade; [4]): 100 | Cupgrass, Woolly plant response rating (woolly cupgrass; [2]): 100 | Cupgrass, Woolly plant response rating (woolly cupgrass; [3]): 100 | Plant response rating, Cupgrass, Woolly (woolly cupgrass; Preemergence): 100 | Cupgrass, Woolly plant response rating (woolly cupgrass; [4]): 100 | Oat, Wild plant response rating (wild oat; [2]): 85 | Oat, Wild plant response rating (wild oat; [3]): 90 | Plant response rating, Oat, Wild (wild oat; Preemergence): 40 | Oat, Wild plant response rating (wild oat; [4]): 98 | Ragweed plant response rating (common ragweed; [2]): 60 | Plant response rating, Ragweed (common ragweed; Preemergence): 30 | Ragweed plant response rating (common ragweed; [4]): 90 | Goosegrass plant response rating (Goosegrass; [2]): 100 | Goosegrass plant response rating (Goosegrass; [3]): 100 | Plant response rating, Goosegrass (Goosegrass; Preemergence): 100 | Goosegrass plant response rating (Goosegrass; [4]): 100 | Wheat plant response rating (wheat; [2]): 15 | Wheat plant response rating (wheat; [3]): 30 | Plant response rating, Wheat (wheat; Preemergence): 0 | Wheat plant response rating (wheat; [4]): 100

Cc1cc[n+]([O-])c(S(=O)(=O)Cc2c(C(F)(F)F)nn(C)c2Cl)c1 [Compound 19]
Ryegrass, Italian plant response rating (Italian ryegrass; [2]): 30 | Plant response rating, Ryegrass, Italian (Italian ryegrass; Preemergence): 0 | Foxtail, Green plant response rating (green foxtail; [2]): 100 | Plant response rating, Foxtail, Green (green foxtail; Preemergence): 98 | Plant response rating (0 to 100), Foxtail, Green (green foxtail; Preemergence, 250 g ai/ha): 100 | Blackgrass plant response rating (blackgrass; [2]): 0 | Plant response rating, Blackgrass (blackgrass; Preemergence): 0 | Plant response rating (0 to 100), Blackgrass (blackgrass; Preemergence, 250 g ai/ha): 100 | Blackgrass plant response rating (blackgrass; [9]): 0 | Plant response rating, Sedge, Umbrella (umbrella sedge; [10]): 0 | Plant response rating, Sedge, Umbrella (umbrella sedge; [11]): 0 | Plant response rating, Sedge, Umbrella (umbrella sedge; [12]): 70 | Plant response rating, Sedge, Umbrella (umbrella sedge; [6]): 95 | Nutsedge, Yellow plant response rating (yellow nutsedge; [2]): 70 | Plant response rating, Nutsedge, Yellow (yellow nutsedge; Preemergence): 40 | Sunflower plant response rating [1, 2]: 0 | Plant response rating, Sunflower ([1]; Preemergence): 0 | Corn plant response rating (corn; [2]): 40 | Plant response rating, Corn (corn; Preemergence): 0 | Plant response rating (0 to 100), Corn (corn; Preemergence, 250 g ai/ha): 70 | Corn plant response rating (corn; [9]): 40 | Crabgrass, Large plant response rating (crabgrass; [13]): 40 | Crabgrass, Large plant response rating (crabgrass; [7]): 80 | Crabgrass, Large plant response rating (crabgrass; [8]): 70 | Plant response rating, Crabgrass, Large (crabgrass; Preemergence, 500 g ai/ha): 100 | Pigweed plant response rating (redroot pigweed; [13]): 10 | Pigweed plant response rating (redroot pigweed; [7]): 30 | Pigweed plant response rating (redroot pigweed; [8]): 100 | Plant response rating, Pigweed (redroot pigweed; Preemergence, 500 g ai/ha): 100 | Morningglory plant response rating (morningglory; [13]): 20 | Morningglory plant response rating (morningglory; [7]): 30 | Morningglory plant response rating (morningglory; [8]): 60 | Plant response rating, Morningglory (morningglory; Preemergence, 500 g ai/ha): 80 | Plant response rating, Ducksalad (duck salad; [10]): 0 | Plant response rating, Ducksalad (duck salad; [11]): 0 | Plant response rating, Ducksalad (duck salad; [12]): 0 | Plant response rating, Ducksalad (duck salad; 250 g ai/ha, scale 0 to 100 (0 no effect, 100 complete control)): 75 | Nightshade plant response rating (eastern black nightshade; [2]): 100 | Plant response rating, Nightshade (eastern black nightshade; Preemergence, 31 g ai/ha, scale 0 to 100 (0 no effect, 100 complete control)): 85 | Cupgrass, Woolly plant response rating (woolly cupgrass; [2]): 100 | Plant response rating, Cupgrass, Woolly (woolly cupgrass; Preemergence): 0 | Plant response rating (0 to 100), Cupgrass, Woolly (woolly cupgrass; Preemergence, 250 g ai/ha): 100 | Oat, Wild plant response rating (wild oat; [2]): 0 | Plant response rating, Oat, Wild (wild oat; Preemergence): 0 | Ragweed plant response rating (common ragweed; [2]): 0 | Plant response rating, Ragweed (common ragweed; Preemergence): 0 | Goosegrass plant response rating (Goosegrass; [2]): 100 | Plant response rating, Goosegrass (Goosegrass; Preemergence): 100 | Plant response rating (0 to 100), Goosegrass (Goosegrass; Preemergence, 250 g ai/ha): 100 | Wheat plant response rating (wheat; [2]): 0 | Plant response rating, Wheat (wheat; Preemergence): 0
